≈ marks a conversion by molar mass, not a printed value.
settings: buffer; pH 7.4; 200.0 µM

Compound | solubility kinetic [µg/mL]
CC1CCCC(C)N1C(=O)COC(=O)Cc1ccc(F)cc1 (stereo not given) | 30.9 (≈ 101 µM)
N#Cc1ccc2nc3c(nc2c1)CCCC3 | 30.2 (≈ 144 µM)
COc1ccc(CNC(=O)COC(=O)c2ccc(F)c(S(=O)(=O)N3CCOCC3)c2)cc1 | 68 (≈ 146 µM)
CC(=O)Nc1ccc(NC(=O)[C@H](C)NC(=O)c2ccco2)cc1 | > 47.3
O=C(NC1CCCCC1)c1cc(-c2ccccc2O)on1 | 0.6 (≈ 2.1 µM)
NC(=O)C1CCN(C(=O)CSc2nc(O)cc(=O)[nH]2)CC1 | 31.1 (≈ 99.6 µM)
CC(C)(C)NC(=O)COC(=O)c1ccc(Cl)nc1 | 36.4 (≈ 134 µM)
O=c1nc(Nc2ccccc2)oc2ccccc12 | 26.8 (≈ 112 µM)
Cc1c(C)n(O)c2ccc3nonc3c12 | > 30.5
O=C(CCNC(=O)c1ccccc1)NCC1CCCCC1 | > 43.3
O=C(c1ccc(Cl)c([N+](=O)[O-])c1)N1CCCc2ccccc21 | 23.7 (≈ 74.8 µM)
O=C(CSc1nnc(C2CC2)n1C1CC1)c1cccs1 | > 45.8
CC(OC(=O)c1ccccc1)C(=O)NCCC1=CCCCC1 (stereo not given) | > 45.2
CNC1=CC(=O)CC(c2ccccc2)C1 (stereo not given) | > 30.2
CCN(CC)CC(=O)Nn1c(C)nc2c(ncn2-c2ccccc2)c1=O | > 53.2
Cc1ccc(NC(=O)C(C)C(=O)Nc2ccc(C)cc2)cc1 | 1.5 (≈ 5.06 µM)
O=C(CSCCS(=O)(=O)c1ccc(Cl)cc1)Nc1ccccc1 | 3.5 (≈ 9.46 µM)
O=C1CC2(CCN(C(=O)c3ccc([N+](=O)[O-])cc3)CC2)Oc2ccccc21 | 3.2 (≈ 8.73 µM)
O=C(c1ccc(NS(=O)(=O)c2cccc(F)c2)cc1)N1CCCC1 | 51.2 (≈ 147 µM)
CCOC(=O)c1cn2nc(N3CCCCC3)ccc2n1 | > 41.1

Compound | solubility kinetic [µg/mL]
O=c1c2ccccc2sn1-c1nccs1 | 1.4 (≈ 5.98 µM)
Cn1c(/C(C#N)=C(\O)c2cccc(F)c2)nc2ccccc21 | 0.3 (≈ 1.02 µM)
O=C1CCCN1CC(O)CS(=O)(=O)Cc1ccccc1 (stereo not given) | > 44.6
CC(NC(=O)c1ccc(F)cc1)C1CC2CCC1C2 (stereo not given) | 6.9 (≈ 26.4 µM)
Cc1occc1C(=O)NCc1nc(-c2ccccc2)no1 | > 42.5
Cc1cc(C(=O)N2CCC3(CC2)OCCO3)no1 | > 37.8
C[N+](C)(C)CCCCCC[N+](C)(C)C.[Br-] | > 54.3
Cc1ccc(C(=O)CCC(=O)Nc2ncccc2C)cc1 | > 42.4
C=CCOc1ccc(CNCc2cccnc2)cc1.Cl | > 43.6
CC(=O)c1c(C)[nH]c(C(=O)Nc2ccc(F)cc2F)c1C | 20.6 (≈ 70.5 µM)
NC(=O)c1c(NC(=O)c2ccc(F)cc2)sc2c1CCC2 | 0.7 (≈ 2.3 µM)
COC(=O)CNC(=O)/C=C/c1cc(Br)ccc1OC | 38.1 (≈ 116 µM)
CC(=O)N1CCN(c2ccc(NC(=O)c3ccccc3C)cc2)CC1 | 36.8 (≈ 109 µM)
O=C(O)c1cc(S(=O)(=O)N2CC3CC3C2C(=O)O)c(Cl)cc1Cl (stereo not given) | 52.3 (≈ 138 µM)
CCc1nc2oc3ccccc3c(=O)c2cc1C(=O)OC | 4.2 (≈ 14.8 µM)
Cc1ccc(-c2cc(-c3ccco3)c(C#N)c(=O)[nH]2)cc1 | 2.6 (≈ 9.41 µM)
CC(C)[C@H](NC(=O)c1ccccc1)C(=O)OCC(=O)c1c(N)n(C)c(=O)n(C)c1=O | > 62.5
CC(C)CC1NC(=O)N(CC(=O)N(C)C2CCCCC2)C1=O (stereo not given) | > 46.4
CCc1cccc2c(=O)c(C(=O)NCCCOC)c[nH]c12 | > 43.3
Cc1nc2ccccc2c(=O)n1Cc1ccco1 | > 36

Compound | solubility kinetic [µg/mL]
O=C(/C=C/c1ccc([N+](=O)[O-])cc1)OCC(=O)N1CCOCC1 | 10.1 (≈ 31.5 µM)
COC(OC)c1ccnc(-c2ccc(OC(C)=O)cc2)n1 | > 43.2
Cc1cccc(OCC(=O)Nc2ccc(NC(=O)c3ccco3)c(C)c2)c1 | 4.4 (≈ 12.1 µM)
CCC(NC(=O)c1ccccc1Br)c1ccccc1 (stereo not given) | > 47.7
O=C(OCC(=O)N1CCc2ccccc21)c1ccccn1 | > 42.3
COc1ccc(NS(=O)(=O)c2cc(NC(=O)c3ccccc3)ccc2N2CCOCC2)cc1 | 13.1 (≈ 28 µM)
CCS(=O)(=O)Nc1cc2c3c(c1)CCC(=O)N3CCC2 | > 44.2
O=C(c1ccc(F)cc1)N1CCN(c2ccccn2)CC1 | > 42.8
Cc1cc(Nc2ccccc2Cl)nc(-c2ccccc2O)n1 | 1.3 (≈ 4.17 µM)
N#CC1=C(N)Oc2c(ccc3cccnc23)C1c1ccccc1 (stereo not given) | 9.8 (≈ 32.7 µM)
N#Cc1ccccc1COC(=O)c1ccc(Br)o1 | 28.4 (≈ 92.8 µM)
CN(C)c1ccc(/C=C/C#N)cc1 | 5.4 (≈ 31.4 µM)
CCOc1ccc(CCNC(=O)COC(=O)c2ccncc2)cc1OCC | > 55.9
CCOC(=O)c1nsnc1NCCCl | 22.7 (≈ 96.3 µM)
Cc1ccc(S(=O)(=O)NC(=O)Nc2cc(C)no2)cc1 | > 44.3
CC(=O)C1=C(C)NC2=C(C(=O)CC(C)(C)C2)C1C (stereo not given) | > 37.1
O=c1nc(-c2ccccc2Cl)c2cc(F)ccc2[nH]1 | 38.9 (≈ 142 µM)
COc1ccc(S(=O)(=O)NC(C)C(=O)N2CCCCCC2)cc1 (stereo not given) | > 51.1
COc1ccccc1N(C)S(=O)(=O)c1ccc(C(=O)Nc2cccc(Br)c2)cc1 | 3 (≈ 6.31 µM)
N#CCCN(Cc1ccccc1)C(=O)Nc1ccc2c(c1)CCO2 | 21.7 (≈ 67.5 µM)

Source: PubChem BioAssay AID1996
